Test results as given in patent US20240368122A1, “JAK2 INHIBITORS AND METHODS OF USE THEREOF” (RELAY THERAPEUTICS, INC., priority 2021, published 2024).
Like-named read-outs stand apart in the source and are kept apart here.

Key:
[1] = target: T1, JAK2 JH2 WT (V536-D812) [W659A, W777A, F794H solubilizing mutations] (Homo sapiens, UniProt O60674, F794H/W659A/W777A); experiment: Surface Plasmon Resonance (SPR) binding assay, JAK2 JH2 domain
T1 construct: **JAK2 JH2 WT (V536-D812) [W659A, W777A, F794H solubilizing mutations]; C-thrombin-avi-His6; thrombin cleavage site (C); His6 (C); purchased Biortus
Description: Selected compounds of the present disclosure were tested in a Surface Plasmon Resonance (SPR) Assay to measure their binding kinetics and affinity for proteins of interest.
Prepare buffer: 50 mM HEPES pH 7.5, 150 mM NaCl, 0.05% (v/v) Tween, and 10% (v/v) glycerol were combined and pH was adjusted to 7.5, then filtered. 5 mM DTT, was added, and buffer without DMSO was reserved for compound resuspension. 2% (v/v) DMSO was added for assay buffer, and separately 1% DMSO was used to make buffer for resuspending compounds.
Prepare compounds: Using a Bravo liquid handler, 99 μL of 1% (v/v) DMSO assay buffer was added to 1 μL compounds in DMSO.
Run 8K Method: Biotin CAPture (CAP) chip surface was regenerated prior to run by: Inserting CAP chip into Biacore 8K, prime machine with assay buffer with 2% (v/v) DMSO; Setting instrument temperature to 20° C.; Conditioning surface with NaOH/GdnHCl reagents from CAP chip kit (60 seconds, 10 μL/min); and Capturing oligo-Streptavidin (SA) reagent from CAP kit (600 seconds, 1 μL/min), expected capture ˜2500 RU. JAK2 JH1 or JH2 protein was immobilized by preparing a sample of 0.5 uM JH1 or 0.4 uM JH2 protein diluted in assay buffer without DMSO and supplemented with 10 uM of a selected compound of the invention as a stabilizer (370 seconds, 5 uL/min), expected capture ˜1000 RU. Remaining biotin sites on SA were blocked with 1 uM biotin (30 seconds, 20 uL/min), then equilibrated for 1800 seconds at 100 uL/min. Compounds being assayed were run in single cycle kinetics: 4 doses with a top concentration of 5 uM (JH1) or 500 nM (JH2), dilution factor of 3, at 20° C., for a contact time of 60 seconds, and a dissociation time of 300 seconds (JH1) or 1200 seconds (JH2), at a flow rate of 30 uL/min. The surface was completely regenerated after each compound is run, and JH1 or JH2 protein was immobilized fresh prior to each new compound. Data were fitted kinetically with 1:1 binding model using Biacore Insight Evaluation Software.

[2] = tested on: TF1 JAK2 V617F STAT3 reporter; experiment: Cellular TF1 STAT3 assay (luciferase reporter), JAK2 V617F; type: cell-based; conditions: read-out: Cell PD-TF1 JAK2 V617F STAT3 (IC50)
Description: (§1) Selected compounds of the present disclosure were tested in a Cellular TF1 STAT3 or STAT5 assay, to measure the degree of JAK2-mediated STAT3 or STAT5 phosphorylation, respectively. TF1 cells (immortalized erythroleukemia line) expressing either wildtype or V617F mutant JAK2 with a luciferase reporter were used.
(§2) Cell culture: Cells were put into antibiotic selection (1 ug/ml puro+500 ug/ml Geneticin) when first thawed then maintained in growth media without antibiotics. Cells were maintained in exponential growth phase, between 0.02-1 E6 cells/ml.
(§3) Compound preparation: Compounds were screened as 10-point dose response curves 1:3 dilutions. DMSO is used as the vehicle control. All wells were normalized to the same final DMSO concentration. Compounds were pre-spotted onto 384 well plates using an Echo acoustic dispenser, 50 nL of 1000× (10 mM top concentration) DMSO stock/well. Each compound is run in triplicate plates.
(§4) Cell plating: Cells were counted using Vi-Cell XR, then cells were spun down and resuspended in growth media to 200,000 cells/ml. Cells were added to plates containing compound. 10,000 cells/well in 50 ul volume using a Biomek liquid handler. Plates were briefly mixed on a shaker for 1 minute at 2500 rpm then placed in a 37° C., 5% CO2 incubator overnight for 18-20 hrs.
(§5) Measuring luciferase activity: ONE-glo reagent was brought to room temperature, and 25 μL of ONE-glo assay reagent was added to each well using Biomek liquid handler. The plates were incubated for 10 minutes at room temperature, then luminescence was measured on an Envision plate reader.

[3] = tested on: TF1 JAK2 V617F STAT5 reporter; experiment: Cellular TF1 STAT5 assay (luciferase reporter), JAK2 V617F; type: cell-based; conditions: read-out: Cell PD TF1 V617F STAT5 (IC50)
Description: as §1, §2, §3, §4, §5

[4] = Homo sapiens, TF-1, TF1 cells, JAK2 V617F

T1 sequence (O60674 536-812 W659A/W777A/F794H): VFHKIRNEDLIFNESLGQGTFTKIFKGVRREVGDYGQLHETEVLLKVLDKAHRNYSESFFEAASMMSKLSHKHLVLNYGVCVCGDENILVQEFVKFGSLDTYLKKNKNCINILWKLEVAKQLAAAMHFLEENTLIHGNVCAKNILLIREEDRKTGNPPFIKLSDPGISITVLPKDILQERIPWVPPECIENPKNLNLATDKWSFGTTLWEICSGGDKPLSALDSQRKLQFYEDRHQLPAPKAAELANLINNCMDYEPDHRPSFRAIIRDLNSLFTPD

SMILES	Kd [1]	IC50 [2, 4]	IC50 [3, 4]	Kd ([1]; SPR, JAK2 JH2 domain)	IC50 ([2]; TF1 JAK2 V617F)	IC50 ([3]; TF1 JAK2 V617F)
CNC(=O)c1nnc(NC(=O)C2CC2)cc1Nc1cccc(-c2ccc(C(=O)N(C)Cc3ccc(OC)cc3)nc2)c1OC [Compound 94]	–	–	–	0.01 to 10 nM	500 to 5000 nM	500 to 5000 nM
CNC(=O)c1nnc(NC(=O)C2CC2)cc1Nc1cccc(-c2cnn(C3CN(Cc4cccnc4)C3)c2)c1OC [Compound 89]	–	–	–	0.01 to 10 nM	50 to 500 nM	50 to 500 nM
CNC(=O)c1nnc(NC(=O)C2CC2)cc1Nc1cccc(-c2ccc(C(=O)N(C)C[C@H]3CCS(=O)(=O)C3)nc2)c1OC (single isomer, unassigned) [Compound 207]	0.01 to 10 nM	5000 to 100000 nM	5000 to 100000 nM	–	–	–
CNC(=O)c1nnc(NC(=O)C2CC2)cc1Nc1cccc(-c2cn(C3CN(Cc4ccccn4)C3)nc2C)c1OC [Compound 184]	–	–	–	0.01 to 10 nM	500 to 5000 nM	500 to 5000 nM
CNC(=O)c1nnc(NC(=O)C2CC2)cc1Nc1cccc(-c2ccc(C(=O)N(C)[C@@H](C)c3cnn(C)c3)nc2)c1OC (single isomer, unassigned) [Compound 116]	–	–	–	0.01 to 10 nM	50 to 500 nM	500 to 5000 nM
CNC(=O)c1nnc(NC(=O)C2CC2)cc1Nc1cccc(-c2cnn(C3CN(Cc4cnccn4)C3)c2)c1OC [Compound 110]	–	–	–	0.01 to 10 nM	50 to 500 nM	500 to 5000 nM
CNC(=O)c1nnc(NC(=O)C2CC2)cc1Nc1ccc(C)c(-c2ccc(C(=O)N(C)Cc3cc(C#N)ccn3)cc2)c1OC [Compound 103]	–	–	–	0.01 to 10 nM	50 to 500 nM	500 to 5000 nM
CNC(=O)c1nnc(NC(=O)C2CC2)cc1Nc1cccc(-c2ccc(C(=O)N3CCc4cccnc4CC3)nc2)c1OC [Compound 196]	0.01 to 10 nM	500 to 5000 nM	500 to 5000 nM	–	–	–
CNC(=O)c1nnc(NC(=O)C2CC2)cc1Nc1cccc(-c2ccc(C(=O)N(C)CC3=NO[C@H]4CCCC[C@@H]34)nc2)c1OC (single isomer, unassigned) [Compound 194]	–	–	–	0.01 to 10 nM	500 to 5000 nM	500 to 5000 nM
CNC(=O)c1nnc(NC(=O)C2CC2)cc1Nc1cccc(-c2cn(C3CN(Cc4cccc(C#N)n4)C3)nn2)c1OC [Compound 183]	–	–	–	0.01 to 10 nM	500 to 5000 nM	50 to 500 nM
CNC(=O)c1nnc(NC(=O)C2CC2)cc1Nc1cccc(-c2cnn(C3CN(Cc4cn(C)nc4C)C3)c2)c1OC [Compound 213]	0.01 to 10 nM	500 to 5000 nM	500 to 5000 nM	–	–	–
CNC(=O)c1nnc(NC(=O)C2CC2)cc1Nc1cccc(-c2cnc(C(=O)N(CCF)Cc3cccn(C)c3=O)c(F)c2)c1OC [Compound 22]	–	–	–	0.01 to 10 nM	500 to 5000 nM	500 to 5000 nM
CNC(=O)c1nnc(NC(=O)C2CC2)cc1Nc1cccc(-c2cc(C3CN(Cc4ccccn4)C3)n(C)n2)c1OC [Compound 203]	50 to 500 nM	5000 to 100000 nM	5000 to 100000 nM	–	–	–
CNC(=O)c1nnc(NC(=O)C2CC2)cc1Nc1cccc(-c2cnn(C3CN(Cc4cc(F)ccc4F)C3)c2)c1OC [Compound 128]	–	–	–	0.01 to 10 nM	500 to 5000 nM	500 to 5000 nM
CNC(=O)c1nnc(NC(=O)C2CC2)cc1Nc1cccc(-c2cc(C3CN(Cc4cnn(C)c4)C3)nn2C)c1OC [Compound 175]	–	–	–	0.01 to 10 nM	5000 to 100000 nM	5000 to 100000 nM
CNC(=O)c1nnc(NC(=O)C2CC2)cc1Nc1cccc(-c2ccc(C(=O)N(Cc3cccn(C)c3=O)CC(F)F)nc2)c1OC [Compound 16]	–	–	–	0.01 to 10 nM	500 to 5000 nM	5000 to 100000 nM

Continued, values first:

Kd [1]	IC50 [2, 4]	IC50 [3, 4]	Kd ([1]; SPR, JAK2 JH2 domain)	IC50 ([2]; TF1 JAK2 V617F)	IC50 ([3]; TF1 JAK2 V617F)	SMILES
0.01 to 10 nM	5000 to 100000 nM	5000 to 100000 nM	–	–	–	CNC(=O)c1nnc(NC(=O)C2CC2)cc1Nc1cccc(-c2ncn(C3CN(Cc4ccccn4)C3)n2)c1OC [Compound 224]
10 to 50 nM	5000 to 100000 nM	5000 to 100000 nM	–	–	–	CNC(=O)c1nnc(NC(=O)C2CC2)cc1Nc1cccc(-c2ccc(C3CN(Cc4ccn(C)n4)C3)nc2)c1OC [Compound 263]
0.01 to 10 nM	500 to 5000 nM	500 to 5000 nM	–	–	–	CNC(=O)c1nnc(NC(=O)C2CC2)cc1Nc1cccc(-c2cnn(C3CN(Cc4cccc(C(=O)N(C)CCN)n4)C3)c2)c1OC [Compound 384]
0.01 to 10 nM	500 to 5000 nM	500 to 5000 nM	–	–	–	CNC(=O)c1nnc(NC(=O)C2CC2)cc1Nc1cccc(-c2cnn(C3CN(Cc4cccc(P(C)(C)=O)n4)C3)c2)c1OC [Compound 378]
0.01 to 10 nM	500 to 5000 nM	500 to 5000 nM	–	–	–	CNC(=O)c1nnc(NC(=O)C2CC2)cc1Nc1cccc(-c2cnn(C3CC(C(O)c4ccccn4)C3)c2)c1OC (stereo not drawn) [Compound 370]
0.01 to 10 nM	50 to 500 nM	50 to 500 nM	–	–	–	CNC(=O)c1nnc(NC(=O)C2CC2)cc1Nc1cccc(-c2cnn(C3CN(Cc4cccc(C(C)O)n4)C3)c2)c1OC (stereo not drawn) [Compound 306]
–	500 to 5000 nM	500 to 5000 nM	0.01 to 10 nM	–	–	CNC(=O)c1nnc(NC(=O)C2CC2)cc1Nc1cccc(-c2cnn([C@H]3C[C@H]([C@@H](O)c4ccccn4)C3)c2)c1OC (single isomer, unassigned) [Compound 396]
0.01 to 10 nM	50 to 500 nM	50 to 500 nM	–	–	–	CNC(=O)c1nnc(NC(=O)C2CC2)cc1Nc1ccc(C)c(-c2cnc(C(=O)N(C)Cc3cn(C)nc3C)c(F)c2)c1OC [Compound 230]
0.01 to 10 nM	5000 to 100000 nM	5000 to 100000 nM	–	–	–	CNC(=O)c1nnc(NC(=O)C2CC2)cc1Nc1cccc(-c2cn(C3CN(Cc4cccc(C#N)n4)C3)nc2C(C)O)c1OC (stereo not drawn) [Compound 337]
0.01 to 10 nM	10 to 50 nM	10 to 50 nM	–	–	–	CCS(=O)(=O)c1ccnc(CN(C)C(=O)c2ccc(-c3cccc(Nc4cc(NC(=O)C5CC5)nnc4C(=O)NC)c3OC)cn2)c1 [Compound 394]
0.01 to 10 nM	500 to 5000 nM	500 to 5000 nM	–	–	–	CNC(=O)c1nnc(NC(=O)C2CC2)cc1Nc1ccc(C)c(-c2cn(C3CN(Cc4cccc(C)n4)C3)nn2)c1OC [Compound 269]
0.01 to 10 nM	500 to 5000 nM	50 to 500 nM	–	–	–	CNC(=O)c1nnc(NC(=O)C2CC2)cc1Nc1ccc(C)c(-c2ccc(C(=O)N(C)Cc3ncc(COC)s3)nc2)c1OC [Compound 317]
0.01 to 10 nM	500 to 5000 nM	500 to 5000 nM	–	–	–	CNC(=O)c1nnc(NC(=O)C2CC2)cc1Nc1cccc(-c2cn([C@@H]3CN(Cc4cccc(C)n4)[C@H]3C(OC)OC)nn2)c1OC (racemic) [Compound 247]
–	50 to 500 nM	50 to 500 nM	0.01 to 10 nM	–	–	[2H]C([2H])(c1cccc(C#N)n1)N1CC(n2cc(-c3cccc(Nc4cc(NC(=O)C5CC5)nnc4C(=O)NC)c3OC)cn2)C1 [Compound 409]
0.01 to 10 nM	5000 to 100000 nM	5000 to 100000 nM	–	–	–	CNC(=O)c1nnc(NC(=O)C2CC2)cc1Nc1cccc(-c2cnc(C3CN(Cc4cccc5ncnn45)C3)nc2)c1OC [Compound 327]
0.01 to 10 nM	50 to 500 nM	50 to 500 nM	–	–	–	CNC(=O)c1nnc(NC(=O)C2CC2)cc1Nc1cccc(-c2cnn(C3CN(Cc4cccc(C#CCO)n4)C3)c2)c1OC [Compound 255]
